A value given as a limit tells only on which side of the number the result lay.

The assay addresses T1, TweCA (TweCAδ) (Conticribra weissflogii, UniProt Q5U9J1).
T1 construct: gene ca1; recombinant, obtained in-house as reported earlier
T1 sequence (Q5U9J1 1-281): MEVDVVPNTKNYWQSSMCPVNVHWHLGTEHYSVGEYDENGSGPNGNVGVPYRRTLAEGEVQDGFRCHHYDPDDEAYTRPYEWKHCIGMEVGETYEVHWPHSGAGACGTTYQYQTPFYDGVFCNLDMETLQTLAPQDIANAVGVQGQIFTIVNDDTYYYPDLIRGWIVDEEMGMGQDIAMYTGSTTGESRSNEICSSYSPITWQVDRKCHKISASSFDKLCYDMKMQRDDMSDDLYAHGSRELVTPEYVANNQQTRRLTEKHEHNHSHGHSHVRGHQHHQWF
Description: stopped-flow CO2 hydration assay. Format: biochemical.

With `Oc1ccccc1` [compound 1, phenol (R = H)], the inhibition constant (Ki) was 52.3 µM.
As to `Oc1ccccc1O` [compound 2, R = 2-OH], the Ki came to 4.5 µM.
In turn, `Oc1cccc(O)c1` [compound 3, R = 3-OH] came in with a Ki of 48.2 µM.
Then `Oc1ccc(O)cc1` [compound 4, R = 4-OH], with 34.9 µM; and `Oc1ccc(O)c(O)c1` [compound 5, R = 2,4-diOH], with 2 µM; and `Nc1cccc(O)c1` [compound 6, R = 3-NH2], with 65.4 µM.
Consider `Nc1ccc(O)cc1` [compound 7, R = 4-NH2], for which the Ki was determined as 17.6 µM. This Ki lies about 3.7-fold lower than the previous one.
Then `CC(=O)Nc1ccc(O)cc1` [compound 8, R = 4-NHCOCH3], with 7.9 µM; and `N#Cc1ccc(O)cc1` [compound 9, R = 4-CN], with 56.9 µM; and `O=C(O)c1ccccc1O` [compound 10, R = 2-COOH], with 0.95 µM.
With `O=C(O)c1ccc(O)cc1` [compound 11, R = 4-COOH], the Ki was 1.4 µM.
In the case of `OCc1ccc(O)cc1` [compound 12, R = 4-CH2OH] it was 35.9 µM; in that of `Nc1cc(O)ccc1Cl` [compound 13, R = 3-NH2-4-Cl], above 100 µM.
Regarding `Nc1ccc(O)c(Cl)c1` [compound 14, R = 4-NH2-2-Cl], the Ki was above 100 µM.
Then `Oc1cc(F)ccc1F` [compound 15, R = 2,5-diF], with 30.7 µM.
In the case of `Oc1cc(F)cc(F)c1` [compound 16, R = 3,5-diF] it was 21 µM.
Compound `Oc1c(F)cc(F)cc1F` [compound 17, R = 2,4,6-triF] gave a Ki of 13.8 µM.
Turning to `O=C(O)c1ccc(O)c(O)c1` [compound 18, R = 4-COOH-2-OH], the Ki was found to be 4.9 µM.
In the case of `O=C(O)c1c(O)cccc1O` [compound 19, R = 2-COOH-3-OH] it was 2.7 µM; in that of `O=C(O)c1cc(O)ccc1O` [compound 20, R = 2-COOH-4-OH], 0.81 µM; in that of `O=C(O)/C=C/c1ccc(O)cc1` [compound 21, R = 4-(CHCHCOOH)], 14.5 µM.
On to `O=C(O)/C=C/c1ccc(O)c(O)c1` [compound 22, R = 2-OH-4-(CHCHCOOH)], for which the affinity corresponds to a Ki of 5.9 µM.

One may read the Ki as a measure of affinity in units of concentration, obtained from inhibition or displacement.

(Values after article PMC6968676, “Inhibition survey with phenolic compounds against the δ- and η-class carbonic anhydrases from the marine diatom thalassiosira weissflogii and protozoan Plasmodium falciparum” (Journal of Enzyme Inhibition and Medicinal Chemistry, 2019).)
